Measured values published in ChEMBL document CHEMBL3779887, “Robenidine Analogues as Gram-Positive Antibacterial Agents” (J Med Chem, 2016).
In brackets after ≈: the same amount, converted by molar mass. Activity calls are given as the source filed them. The calls are words filed in the database; no cut-off is given here.

Assays:
[1] = Solubility of the compound at pH 2; assay type: physicochemical; conditions: buffer
Enterococcus = assay: Antibacterial activity against vancomycin-resistant Enterococcus after 20 to 24 hrs; assay type: functional
Escherichia coli [2] = assay: Antibacterial activity against Escherichia coli ATCC 25922 after 20 to 24 hrs; assay type: functional
[3] = Solubility of the compound at pH 6.5; assay type: physicochemical; conditions: buffer
[4] = Half life of compound in mouse liver microsomes; assay type: ADME
[5] = Half life of compound in human liver microsomes; assay type: ADME
[6] = Lipophilicity, logD of the compound at pH 3; assay type: physicochemical; conditions: buffer
[7] = Intrinsic clearance in mouse liver microsomes assessed per mg of protein; assay type: ADME; conditions: read-out: CLH
Staphylococcus aureus [8] = assay: Antibacterial activity against methicillin-resistant Staphylococcus aureus after 20 to 24 hrs; assay type: functional
[9] = Lipophilicity, logD of the compound at pH 7.4; assay type: physicochemical; conditions: buffer
[10] = Intrinsic clearance in human liver microsomes assessed per mg of protein; assay type: ADME; conditions: read-out: CLH
[11] = Metabolic stability in human liver microsomes assessed as compound loss after 60 mins; assay type: ADME; conditions: read-out: Drug degradation
[12] = Selectivity ratio of MIC for methicillin-resistant Staphylococcus aureus to MIC for vancomycin-resistant Enterococcus; assay type: functional
Pseudomonas aeruginosa [13] = assay: Antibacterial activity against Pseudomonas aeruginosa ATCC 27853 after 20 to 24 hrs; assay type: functional
[14] = Toxicity in sheep erythrocytes assessed as hemolysis at 600 uM after 30 mins; assay type: cell-based, Ovis aries; conditions: erythrocyte, 0.5 h
[15] = Cytotoxicity against human HepG2 cells after 24 hrs by WST-1 based colorimetric assay; assay type: cell-based
Pseudomonas aeruginosa [16] = assay: Ratio of MIC90 for Pseudomonas aeruginosa ATCC 27853 to MIC90 for Pseudomonas aeruginosa ATCC 27853 in presence of polymyxin B nonapeptide; assay type: functional
Staphylococcus aureus [17] = assay: Bactericidal activity against Methicillin-sensitive Staphylococcus aureus ATCC 29213 assessed as log reduction in bacterial cell number at 8 times MIC after 24 hrs by time-kill curve analysis; assay type: functional, organism-based
Staphylococcus aureus [18] = assay: Antibacterial activity against methicillin-sensitive Staphylococcus aureus ATCC 6538 after 20 to 24 hrs; assay type: functional
Staphylococcus aureus [19] = assay: Bactericidal activity against methicillin-sensitive Staphylococcus aureus ATCC 29213 after 24 and 48 hrs; assay type: functional
Staphylococcus aureus [20] = assay: Bactericidal activity against […] Staphylococcus aureus clinical isolate USA300 assessed as log reduction in bacterial cell number at 2 times MIC after 8 hrs by time-kill curve analysis; assay type: functional
Staphylococcus aureus [21] = assay: Antibacterial activity against methicillin-sensitive Staphylococcus aureus ATCC 29213 after 20 to 24 hrs; assay type: functional
Staphylococcus aureus [22] = assay: Bactericidal activity against […] Staphylococcus aureus clinical isolate USA300 assessed as log reduction in bacterial cell number at 4 times MIC after 8 hrs by time-kill curve analysis; assay type: functional
Staphylococcus aureus [23] = assay: Bactericidal activity against methicillin-sensitive Staphylococcus aureus ATCC 25923 after 24 and 48 hrs; assay type: functional
Staphylococcus aureus [24] = assay: Bactericidal activity against […] Staphylococcus aureus clinical isolate USA300 assessed as log reduction in bacterial cell number at 8 times MIC after 8 hrs by time-kill curve analysis; assay type: functional
Staphylococcus aureus [25] = assay: Antibacterial activity against methicillin-sensitive Staphylococcus aureus ATCC 29213 after 20 to 24 hrs in presence of 50% heat inactivated bovine serum
Staphylococcus aureus [26] = assay: Bactericidal activity against methicillin-sensitive Staphylococcus aureus ATCC 29213 assessed as log reduction in bacterial cell number at MIC after 8 hrs by time-kill curve analysis; assay type: functional
Staphylococcus aureus [27] = assay: Antibacterial activity against methicillin-resistant Staphylococcus aureus clinical isolate after 20 to 24 hrs; assay type: functional
Staphylococcus aureus [28] = assay: Bactericidal activity against Methicillin-sensitive Staphylococcus aureus ATCC 29213 assessed as log reduction in bacterial cell number at 2 times MIC after 24 hrs by time kill curve analysis; assay type: functional, organism-based
Staphylococcus aureus [29] = assay: Antibacterial activity against methicillin-sensitive Staphylococcus aureus ATCC 49775 after 20 to 24 hrs in presence of 50% heat inactivated bovine serum; assay type: functional
Staphylococcus aureus [30] = assay: Bactericidal activity against methicillin-sensitive Staphylococcus aureus ATCC 29213 assessed as log reduction in bacterial cell number at 2 times MIC after 8 hrs by time-kill curve analysis; assay type: functional
Staphylococcus aureus [31] = assay: Bactericidal activity against […] Staphylococcus aureus clinical isolate USA300 assessed as log reduction in bacterial cell number at 4 times MIC after 24 hrs by time-kill curve analysis; assay type: functional, organism-based
Staphylococcus aureus [32] = assay: Antibacterial activity against methicillin-sensitive Staphylococcus aureus ATCC 29213 after 20 to 24 hrs in presence of 50% heat inactivated bovine serum; assay type: functional
Staphylococcus aureus [33] = assay: Bactericidal activity against methicillin-sensitive Staphylococcus aureus ATCC 49775 after 24 and 48 hrs; assay type: functional
Escherichia coli [34] = assay: Ratio of MIC90 for Escherichia coli ATCC 25922 to MIC90 for Escherichia coli ATCC 25922 in presence of polymyxin B nonapeptide; assay type: functional
Pseudomonas aeruginosa [35] = assay: Antibacterial activity against Pseudomonas aeruginosa ATCC 27853 after 20 to 24 hrs in presence of polymyxin B nonapeptide; assay type: functional
Staphylococcus aureus [36] = assay: Ratio of MBC for methicillin-sensitive Staphylococcus aureus ATCC 6538 to MIC90 for methicillin-sensitive Staphylococcus aureus ATCC 6538; assay type: functional
[37] = Selectivity index, ratio of GI50 for human HepG2 cells to MIC50 for methicillin-resistant Staphylococcus aureus clinical isolate; assay type: functional
Staphylococcus aureus [38] = assay: Ratio of MBC for methicillin-sensitive Staphylococcus aureus ATCC 25923 to MIC90 for methicillin-sensitive Staphylococcus aureus ATCC 25923; assay type: functional
[39] = Selectivity index, ratio of GI50 for human HEL299 cells to MIC50 for methicillin-sensitive Staphylococcus aureus clinical isolate; assay type: functional, HEL 299
Staphylococcus aureus [40] = assay: Ratio of MBC for methicillin-sensitive Staphylococcus aureus ATCC 29213 to MIC90 for methicillin-sensitive Staphylococcus aureus ATCC 29213; assay type: functional
[41] = Selectivity index, ratio of GI50 for human HepG2 cells to MIC50 for methicillin-sensitive Staphylococcus aureus clinical isolate; assay type: functional
Staphylococcus aureus [42] = assay: Bactericidal activity against […] Staphylococcus aureus clinical isolate USA300 assessed as log reduction in bacterial cell number at 2 times MIC after 24 hrs by time-kill curve analysis; assay type: functional, organism-based
Staphylococcus aureus [43] = assay: Antibacterial activity against methicillin-sensitive Staphylococcus aureus ATCC 49775 after 20 to 24 hrs; assay type: functional
[44] = Cytotoxicity against human HEL299 cells after 24 hrs by WST-1 based colorimetric assay; assay type: cell-based, HEL 299
Staphylococcus aureus [45] = assay: Bactericidal activity against Methicillin-sensitive Staphylococcus aureus ATCC 29213 assessed as log reduction in bacterial cell number at MIC after 8 hrs by time kill curve analysis
Staphylococcus aureus [46] = assay: Bactericidal activity against methicillin-sensitive Staphylococcus aureus ATCC 29213 assessed as log reduction in bacterial cell number at 8 times MIC after 8 hrs by time-kill curve analysis; assay type: functional
Staphylococcus aureus [47] = assay: Bactericidal activity against methicillin-sensitive Staphylococcus aureus ATCC 29213 assessed as log reduction in bacterial cell number at 4 times MIC after 8 hrs by time-kill curve analysis; assay type: functional
Staphylococcus aureus [48] = assay: Bactericidal activity against methicillin-resistant Staphylococcus aureus clinical isolate after 24 and 48 hrs; assay type: functional
Staphylococcus aureus [49] = assay: Antibacterial activity against methicillin-sensitive Staphylococcus aureus ATCC 25923 after 20 to 24 hrs; assay type: functional
Staphylococcus aureus [50] = assay: Bactericidal activity against […] Staphylococcus aureus clinical isolate USA300 assessed as log reduction in bacterial cell number at 8 times MIC after 24 hrs by time-kill curve analysis; assay type: functional, organism-based
Staphylococcus aureus [51] = assay: Ratio of MBC for methicillin-sensitive Staphylococcus aureus ATCC 49775 to MIC90 for methicillin-sensitive Staphylococcus aureus ATCC 49775; assay type: functional
Escherichia coli [52] = assay: Antibacterial activity against Escherichia coli ATCC 25922 after 20 to 24 hrs in presence of polymyxin B nonapeptide; assay type: functional
Staphylococcus aureus [53] = assay: Bactericidal activity against Methicillin-sensitive Staphylococcus aureus ATCC 29213 assessed as log reduction in bacterial cell number at 4 times MIC after 24 hrs by time kill curve analysis; assay type: functional, organism-based
Staphylococcus aureus [54] = assay: Antibacterial activity against Staphylococcus aureus ATCC 29213 after 20 to 24 hrs in presence of 2% heat inactivated bovine serum; assay type: functional
Staphylococcus aureus [55] = assay: Antibacterial activity against methicillin-sensitive Staphylococcus aureus ATCC 6538 after 20 to 24 hrs in presence of 50% heat inactivated bovine serum; assay type: functional
Staphylococcus aureus [56] = assay: Bactericidal activity against methicillin-sensitive Staphylococcus aureus ATCC 6538 after 24 and 48 hrs; assay type: functional
Staphylococcus aureus [57] = assay: Bactericidal activity against methicillin-sensitive Staphylococcus aureus clinical isolate USA300 assessed as log reduction in bacterial cell number at MIC after 8 hrs by time-kill curve analysis; assay type: functional
[58] = Selectivity index, ratio of GI50 for human HEL299 cells to MIC50 for methicillin-resistant Staphylococcus aureus clinical isolate; assay type: functional, HEL 299
Staphylococcus aureus [59] = assay: Bactericidal activity against […] Staphylococcus aureus clinical isolate USA300 assessed as log reduction in bacterial cell number at MIC after 24 hrs by time-kill curve analysis; assay type: functional, organism-based
Staphylococcus aureus [60] = assay: Antibacterial activity against methicillin-sensitive Staphylococcus aureus ATCC 29213 after 20 to 24 hrs in presence of 50% heat inactivated bovine serum; remark: listed apart in the source

With N=C(N/N=C(\CO)c1ccc(Cl)cc1)N/N=C(\CO)c1ccc(Cl)cc1 the solubility [1] was 25 µg/mL (≈ 63.4 µM), the MIC (Enterococcus) was 15.2 µM (≈ 5.99 µg/mL) and the Activity (Escherichia coli [2]) was “inactive”. The solubility [3] was < 1.6 µg/mL, the half-life [4] was 2.18 h and the half-life [5] was > 4.12 h. The logD [6] was 3.2, the microsomal CLint [7] was 13 µL/min/mg and the MIC (Staphylococcus aureus [8]) was 20.3 µM (≈ 8 µg/mL). The logD [9] was 4, the microsomal CLint [10] was < 7 µL/min/mg and the metabolised at 1 h [11] was < 15%.
In the case of N=C(N/N=C/c1cccc(Br)c1)N/N=C/c1cccc(Br)c1, the MIC (Enterococcus) is reported as 15.4 µM (≈ 6.52 µg/mL), the MIC (Escherichia coli [2]) is reported as > 400 µM and the Selectivity ratio [12] is reported as 10. For the same compound, the MIC (Staphylococcus aureus [8]) was > 400 µM and the MIC (Pseudomonas aeruginosa [13]) was > 400 µM.
With C/C(=N\NC(=N)N/N=C(\C)c1ccc(Cl)cc1)c1ccc(Cl)cc1 the Activity [14] was “Non-toxic”, the GI50 at 24 h [15] was 13.8 µM and the Ratio (Pseudomonas aeruginosa [16]) was 10. The Activity (Staphylococcus aureus [17]) was “inactive”, the MIC90 (Staphylococcus aureus [18]) was 1.3 µM (≈ 0.471 µg/mL) and the MBC (Staphylococcus aureus [19]) was 2.5 µM (≈ 0.906 µg/mL). The Activity (Staphylococcus aureus [20]) was “>=4 log10CFU/ml”, the MIC90 (Staphylococcus aureus [21]) was 1.3 µM (≈ 0.471 µg/mL) and the Activity (Staphylococcus aureus [22]) was “>=4 log10CFU/ml”. For the same compound, the MBC (Staphylococcus aureus [23]) was 2.5 µM (≈ 0.906 µg/mL), the Activity (Staphylococcus aureus [24]) was “>=4 log10CFU/ml” and the MIC90 (Staphylococcus aureus [25]) was > 250 µM. The Activity (Staphylococcus aureus [26]) was “>=4 log10CFU/ml”, the MIC90 (Staphylococcus aureus [27]) was 1.3 µM (≈ 0.471 µg/mL) and the Activity (Staphylococcus aureus [28]) was “inactive”. For the same compound, the MIC90 (Staphylococcus aureus [29]) was > 250 µM, the MIC (Enterococcus) was 3.8 µM (≈ 1.38 µg/mL) and the Activity (Staphylococcus aureus [30]) was “>=4 log10CFU/ml”. The MIC90 (Escherichia coli [2]) was > 250 µM, the Activity (Staphylococcus aureus [31]) was “inactive” and the MIC90 (Staphylococcus aureus [32]) was > 250 µM. The MBC (Staphylococcus aureus [33]) was 2.5 µM (≈ 0.906 µg/mL), the Ratio (Escherichia coli [34]) was 10 and the MIC90 (Pseudomonas aeruginosa [35]) was 5 µM. The Ratio (Staphylococcus aureus [36]) was 1, the “Selectivity Index” value [37] was 2 and the Ratio (Staphylococcus aureus [38]) was 1. The “Selectivity Index” value [39] was 2, the Ratio (Staphylococcus aureus [40]) was 1 and the “Selectivity Index” value [41] was 2. For the same compound, the Activity (Staphylococcus aureus [42]) was “inactive”, the MIC90 (Staphylococcus aureus [43]) was 1.3 µM (≈ 0.471 µg/mL) and the GI50 at 24 h [44] was 6.7 µM. The Activity (Staphylococcus aureus [45]) was “inactive”, the Activity (Staphylococcus aureus [46]) was “>=4 log10CFU/ml” and the Activity (Staphylococcus aureus [47]) was “>=4 log10CFU/ml”. The MBC (Staphylococcus aureus [48]) was 2.5 µM (≈ 0.906 µg/mL), the MIC (Staphylococcus aureus [8]) was 7.5 µM (≈ 2.72 µg/mL) and the MIC90 (Staphylococcus aureus [49]) was 1.3 µM (≈ 0.471 µg/mL). The Activity (Staphylococcus aureus [50]) was “inactive”, the Ratio (Staphylococcus aureus [51]) was 1 and the MIC90 (Escherichia coli [52]) was 10 µM. The Activity (Staphylococcus aureus [53]) was “inactive”, the MIC90 (Staphylococcus aureus [54]) was 10 µM and the MIC90 (Pseudomonas aeruginosa [13]) was > 250 µM. The MIC90 (Staphylococcus aureus [55]) was > 250 µM, the MBC (Staphylococcus aureus [56]) was 2.5 µM (≈ 0.906 µg/mL) and the Activity (Staphylococcus aureus [57]) was “>=4 log10CFU/ml”. For the same compound, the “Selectivity Index” value [58] was 2, the Activity (Staphylococcus aureus [59]) was “inactive” and the MIC90 (Staphylococcus aureus [60]) was > 250 µM.
